Where two headings read alike, the source gives them in different places.

Here are results for 1 compound from patent publication US20240117313A1, “METHOD FOR PRODUCING THREE-DIMENSIONAL TISSUE BODY AND METHOD FOR PROMOTING DIFFERENTIATION OF ADIPOSE-DERIVED STEM CELLS” (TOPPAN INC., priority 2021, published 2024).

The test system of assay [1] is subcutaneous fat-derived stein cells. The following applies: for adipogenesis (fat staining with Nile red): FIG. 5. As to the method:
(§1) Onto a 96-well plate (manufactured by IWAKI), 2 μL of FBS-free DMEM containing 1.2% by weight (final concentration) of the defibered collagen component, 6 mg/mL (final concentration) fibrinogen, 3 U/mL (final concentration) thrombin, and 5×10^6 cells/mL of subcutaneous fat-derived stein cells was seeded and incubated for 15 minutes, 200 μL of DMEM culture medium was then added, and culture was performed for 48 hours.

The test system is the same in assay [2]. The following applies: day 7 of differentiation. As to the method:
as §1
The three-dimensional tissue constructs obtained were each subjected to fat staining with Nile red, and Hoechst staining for staining nuclei. In the same manner as in Production Example 1, fluorescence intensity for fat staining (Nile red) relative to fluorescence intensity for nucleic staining (Hoechst) was calculated, and increase rates of fluorescence intensity with reference to that of the three-dimensional tissue constructs cultured in DMEM culture medium containing no ALK5 inhibitor were calculated (three samples were used for each conditions).

On to `Cc1cccc(-c2n[nH]cc2-c2ccc3ncccc3n2)n1` [ALK5 inhibitor, 2-[3-(6-methyl-2-pyridinyl)-1H-pyrazol-4-yl]-1,5-naphthyridine], for which the “adipogenesis (fat staining with Nile red)” value in assay [1] (ALK5 inhibitor 5 μM with seven fatty acids each in 50 IIM, day 3, day 7 and day 14 of differentiation) is given as “had proceeded”; in assay [1] (ALK5 inhibitor 5 μM, day 7 of culture and day 14 of culture (in particular)), “had more proceeded”; in assay [2] (ALK5 inhibitor 1, 5 or 10 μM in DMEM with seven fatty acids each 50 μM, vs medium containing no ALK5 inhibitor, FIG. 3) it was “had proceeded more”. Further, in assay [1] (ALK5 inhibitor 5 μM, FIG. 6), the “difference in increase rates of fluorescence intensity between day 7 and day 14 of culture” value was “No large difference”. In assay [1] (ALK5 inhibitor 5 μM, day 7 of culture and day 14 of culture, FIG. 6), the “increase in fluorescence intensity vs medium containing no ALK5 inhibitor” value is recorded as “significant”. The “increase in fluorescence intensity (Nile red relative to Hoechst)” value in assay [2] (5 μM or more of the ALK5 inhibitor in DMEM with seven fatty acids each 50 μM, vs no ALK5 inhibitor, FIG. 4) is on record as ≥ 3 fold. Moreover, the “differentiation of fat-derived stein cells into mature adipocytes” value in assay [2] (addition of the ALK5 inhibitor to DMEM with seven fatty acids each 50 μM) is “promoted”.
